Laboratory results taken from patent US12606829B2, “Compositions for herpesvirus transcriptional feedback circuit disruption and uses thereof” (priority 2018, dated 2026).
Oligonucleotides are written 5' to 3', each unit as a sugar letter and its base; * is a phosphorothioate linkage, no mark a phosphodiester; rarer units and linkages stand in square brackets, end groups in braces. Plain capitals give the bases only. d = 2'-deoxy (DNA)

Experiments:
HSV-1 (17syn+ IE175-YFP) = assay: Single-round viral titering of HSV-1 in ARPE-19 cells (TCID50); type: cell-based
Text: (§1) FIG. 7: Feedback circuit disruption interferes with viral replication even at high MOI and limits the evolution of resistance. (a) Flow cytometry of ARPE-19 cells nucleofected with the 28 bp dsDNA that titrates IE86 (C-DOT^C) or scrambled dsDNA sequence (C-DOT^Scram) and infected with a clinically derived CMV (TB40E) encoding an IE86-YFP (MOI=0.1) then analyzed at 2 days post infection (dpi). (b) Flow cytometry of ARPE-19 cells nucleofected with a 29 bp DNA to titrate IE175 (C-DOT^H) or scrambled dsDNA sequence (C-DOT^Scram) and infected with HSV-1 (17syn+strain) encoding an IE175-YFP (MOI=0.1) then analyzed at 2 dpi. (c) Single-round viral titering of CMV in the presence of 100 μM GCV, PBS, or 25 μM C-DOT^C (or C-DOT^Scram) at 4-days post infection under different initial MOIs. (d) Single-round viral titering of HSV-1 in presence of 100 μM ACV or 25 μM C-DOT^H (or C-DOT^Scram) at 4-days post infection under different HSV-1 MOIS. (e) Schematic of the continuous-culture experiment; ARPE-19 cells (+/−C-DOT) were infected with CMV or HSV-1 (0.1 MOI) and at 4-day post infection, supernatant was collected and was used to infect naïve ARPE-19 cells +/−C-DOT until day 60. (f) Continuous culture titers for CMV (TB40E-IE86-YFP) in the presence of C-DOT^C (red) or mock treatment (black). […]

CMV (TB40E-IE86-YFP) = assay: Single-round viral titering of CMV in ARPE-19 cells (TCID50); type: cell-based
Text: as §1

MCMV = MCMV replication in NIH 3T3 mouse fibroblast cells (TCID50); type: cell-based, murine CMV; conditions: NIH 3T3, MOI=0.1, 4 days post infection
Method: (§2) FIG. 14: C-DOTs can be engineered to interfere with a broad range of species-specific herpesviruses including drug-resistant strains. (a) Sequence homology for the crs of human CMV, rhesus CMV (RhCMV), and murine CMV (MCMV). Sequence homology and divergence are represented. […] NIH 3T3 mouse fibroblast cells were nucleofected with either 28 bp C-DOT^MCMY, or C-DOT^Scram, or mock nucleofected 24 hours prior to MCMV infection at MOI=0.1. 4 days post infection, virus titers were assayed by TCID50. […] (Upper) Fluorescent micrographs, 4-day post nucleofection, of Telo-RF cells nucleofected with either a 28 bp C-DOT^RhCMV, or a C-DOT^Scram, or mock nucleofected and then infected with RhCMV (RhCMV 68.1 GFP) at MOI=0.1. (Lower) Virus titers assayed by TCID-50 at 4 days post infection. […] MRC-5 cells were nucleofected with C-DOT^C or C-DOT^Scram then infected 24-hour later with either the parent CMV AD169 (control) or GCV^R or FOS^R strains (CMV GDGrK17, CMV GDGrP53, CMV 759rD100-1, CMV PFArD100). Virus titers were assayed by TCID-50 at 4 days post infection.

RhCMV 68.1 GFP = assay: RhCMV replication in Telo-RF cells (TCID-50); type: cell-based, rhesus CMV; conditions: MOI=0.1, 4 days post infection
Method: as §2

[1] = tested on: CMV (TB40E-IE86-YFP or AD169); assay: C-DOT antiviral effect under high and low cGAS-STING expression (MRC-5, ARPE-19); type: cell-based; conditions: MRC-5 (high) and ARPE-19 (low cGAS-STING activity), 4 days post infection
Method: However, to verify that C-DOT activity is independent of cGAS-STING, C-DOTs were tested under conditions of high and low cGAS-STING expression and observed little difference in C-DOT antiviral effects and no effects for C-DOT^Scram in either setting (FIG. 15b).
Total RNA was extracted from cells and corresponding cDNA was quantified by qPCR using sequence specific primers for TLR9 (see Extended Data Table 1 for sequences). […] ARPE-19 (low cGAS-STING activity) and MRC-5 cells (high cGAS-STING activity) were nucleofected with C-DOTE or mock and infected with TB40E-IE86-YFP or AD169, respectively. Virus titers were assayed by TCID-50 at 4 days post infection. (c)C-DOT^C decreases CMV titers below detection by day 60 in the continuous culture setting. CMV titers from the continuous culture experiment followed out to day 60. ARPE-19 cells (+/−25 μM C-DOT) were infected with CMV (TB40E-IE86-YFP; MOI=0.1). (d) CMV and HSV-1 rapidly acquire resistance to approved antivirals (fomivirsen and acyclovir). Viral titers from the continuous culture experiment in the presence or absence of fomivirsen. Mock- or fomivirsen-nucleofected ARPE-19 cells were infected with CMV (TB40E-IE86-YFP; MOI=0.1); at 4 days post infection, supernatants were transferred to infect new naïve ARPE-19 cells (+/−fomivirsen) and transfers repeated every 4 days until day 44. […]

CMV = assay: Cell-death pathway analysis in the context of CMV infection; type: cell-based
Text: (§3) FIG. 10 provides a cell-death pathway analysis (pharmacological inhibitors). The mechanism of C-DOT-induced cell death (in the context of the virus infection) was identified using three separate approaches: (i) RNAseq: to identify misregulated expression patterns and the cell-death pathways these group into (ii) Antibody staining: for specific cell-death pathway markers (iii) Pharmacological inhibitors: of cell-death pathways to test which mitigate C-DOT-induced death. […] C-DOT alone caused cell death in CMV and HSV-1.

HSV-1 = assay: Cell-death pathway analysis in the context of HSV-1 infection; type: cell-based
Text: as §3

Molecule: Nc1nc2c(ncn2COCCO)c(=O)[nH]1 [ACV, acyclovir]
- reduction in viral replication (HSV-1 (17syn+ IE175-YFP); HSV-1, MOI=2, 100 μM ACV or 25 μM C-DOT^H, 4 days post infection): 35-70 ×

Molecule: Nc1nc(O)c2ncn(COC(CO)CO)c2n1 [GCV, ganciclovir]
- reduction in viral replication (CMV (TB40E-IE86-YFP); MOI=2, 100 μM GCV or 25 μM C-DOT^C, 4 days post infection): 35-70 ×

Molecule: C-DOT^MCMV: 28 bp dsDNA with murine CMV crs; Fw G*ACAGACCA*GCGTCGG*TACCGTACACG*A (SEQ ID NO: 9) (sense dG*dAdCdAdGdAdCdCdA*dGdCdGdTdCdGdG*dTdAdCdCdGdTdAdCdAdCdG*dA; antisense TCGTGTACGGTACCGACGCTGGTCTGTC; antisense: DNA, backbone not given here)
- effect on MCMV replication (MCMV): interferes with MCMV replication

Molecule: C-DOT^RhCMV: 28 bp dsDNA with rhesus CMV crs; Fw G*ACAGATCGT*TTAGGGAAC*CGTACACG*A (SEQ ID NO: 8) (sense dG*dAdCdAdGdAdTdCdGdT*dTdTdAdGdGdGdAdAdC*dCdGdTdAdCdAdCdG*dA; antisense TCGTGTACGGTTCCCTAAACGATCTGTC; antisense: DNA, backbone not given here)
- effect on RhCMV replication (RhCMV 68.1 GFP): downregulates RhCMV replication

Molecule: C-DOT^Scram: scrambled dsDNA sequence, phosphorothioated, negative control; Fw A*TACCGCGTAA*CCAGAGGT*ATATAGGT*C (SEQ ID NO: 40) (sense ATACCGCGTAACCAGAGGTATATAGGTC; antisense GACCTATATACCTCTGGTTACGCGGTAT; phosphorothioate; (1)..(2) A Phosphorothioate bond is present between the nucleotides at positions 1 and 2; (11)..(12) A Phosphorothioate bond is present between the nucleotides at positions 11 and 12; (19)..(20) A Phosphorothioate bond is present between the nucleotides at positions 19 and 20; (27)..(28) A Phosphorothioate bond is present between the nucleotides at positions 27 and 28; (1)..(2) A Phosphorothioate bond is present between the nucleotides at positions 1 and 2.; (9)..(10) A Phosphorothioate bond is present between the nucleotides at positions 9 and 10.; (17)..(18) A …)
- antiviral effects (CMV (TB40E-IE86-YFP)): did not exhibit antiviral effects
- antiviral effects (HSV-1 (17syn+ IE175-YFP); HSV-1): did not exhibit antiviral effects
- antiviral effects under high and low cGAS-STING expression [1]: no effects
- cell death (CMV): minimal cell death
- cell death (HSV-1): minimal cell death
